Source: PubChem BioAssay (NCI)
Several values for one entry are separate records, joined by “and”; a condition that tells them apart may be missing. Equal entries are not always repeated.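 Briefly, cells in 96-well plates were exposed to five compound concentrations for 48 h, and endpoints were estimated by linear interpolation. GI50 is the concentration that inhibits growth by half. TGI marks complete inhibition of growth.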

How the values were obtained:
Test in all cases: DTP human tumour cell line panel, 48 h
[1] = system: IGROV1 ovarian
[2] = system: KM12 colon
[3] = system: NCI/ADR-RES ovarian
[4] = system: OVCAR-4 ovarian
[5] = system: OVCAR-8 ovarian
[6] = system: RXF 393 renal
[7] = system: SF-295 CNS
[8] = system: SK-MEL-2 melanoma
[9] = system: SNB-19 CNS
[10] = system: SNB-75 CNS

| SMILES | GI50 [1] | TGI [1] | GI50 [2] | TGI [2] | GI50 [3] | TGI [3] | GI50 [4] | TGI [4] | GI50 [5] | TGI [5] | GI50 [6] | TGI [6] | GI50 [7] | TGI [7] | GI50 [8] | TGI [8] | GI50 [9] | TGI [9] | GI50 [10] | TGI [10] |
| --- | --- | --- | --- | --- | --- | --- | --- | --- | --- | --- | --- | --- | --- | --- | --- | --- | --- | --- | --- | --- |
| Nc1ncnc2occ(-c3ccc(NC(=O)Nc4cccc(C(F)(F)F)c4)cc3)c12 | 2.02 µM | 10.2 µM | 0.123 µM | 4.51 µM | 4.51 µM | 16.2 µM | 3.19 µM | 17.7 µM | 2.85 µM | 8.26 µM | 1.71 µM | 5.39 µM | 3.76 µM | 15.7 µM | 5.39 µM | 11.6 µM | 7.69 µM | 21.3 µM | 3.77 µM | 9.69 µM |
| O=C(NCCc1nccs1)c1cnc2c(S)cccc2c1 | 1.96 µM | 24.7 µM | 2.88 µM | 17.8 µM | 2.97 µM | > 100 µM | 2.72 µM | 34 µM | 4.95 µM | 57.4 µM | 3.07 µM | 9.29 µM | 2.8 µM | 17.1 µM | 3.57 µM | 26.5 µM | 3.41 µM | 33.1 µM | 2.78 µM | 17.6 µM |
| O=C(Nc1ccc(Br)cc1)c1cc(Br)ccc1O | 0.346 µM and 0.749 µM | 22.8 µM and 17 µM | 1.67 µM and 2 µM | 4.99 µM and 5.31 µM | 0.523 µM and 1.16 µM | 8.28 µM | 0.452 µM and 1.17 µM | > 100 µM | 0.554 µM and 2.65 µM | > 82.8 µM | 0.612 µM | 3.89 µM | 0.712 µM and 1.39 µM | 2.3 µM and 4.08 µM | 0.278 µM and 1.74 µM | 1.25 µM and 5 µM | 0.339 µM and 1 µM | > 93.1 µM | 0.348 µM and 1.34 µM | 3.07 µM and 14.3 µM |
| Nc1ncnc2c1ncn2C1OC(F)(COS(N)(=O)=O)C(O)C1O (stereo unspecified) | > 100 µM | > 100 µM | > 100 µM | > 100 µM | > 100 µM | > 100 µM | > 100 µM | > 100 µM | > 100 µM | > 100 µM | 97.9 µM | > 100 µM | > 100 µM | > 100 µM | > 100 µM | > 100 µM | > 100 µM | > 100 µM | > 100 µM | > 100 µM |
| CN(C)Cc1nsc(N(C)C)n1 | – | > 100 µM | – | > 100 µM | – | > 100 µM | – | > 100 µM | – | > 100 µM | – | > 100 µM | – | > 100 µM | – | > 100 µM | – | > 100 µM | – | > 100 µM |
| COc1cccc2c1C(=O)c1c(O)c3c(c(O)c1C2=O)C[C@@](O)(C(=O)CO)C[C@@H]3OC1CC2C(OCN2CN2COC3C(C)OC(O[C@H]4C[C@](O)(C(=O)CO)Cc5c(O)c6c(c(O)c54)C(=O)c4c(OC)cccc4C6=O)CC32)C(C)O1 (stereo partly specified) | 0.0014 µM | 0.127 µM | 0.0139 µM | 0.0609 µM | 0.0187 µM | 0.198 µM | 0.0222 µM | 0.0593 µM | 0.0113 µM | > 1 µM | 0.000978 µM | 0.0101 µM | 0.0024 µM | 0.0259 µM | 0.0179 µM | 0.0591 µM | 0.00292 µM | 0.0256 µM | 0.00419 µM | 0.0149 µM |
| CC12CC(Br)(Br)C(=O)C3C1CCCC32 | – | 27.2 µM | – | 28.3 µM | – | 6.8 µM | – | 10.4 µM | – | 12.7 µM | – | 6.04 µM | – | 29.5 µM | – | 30.4 µM | – | 28.8 µM | – | 22.9 µM |
| CCOC(=O)c1c(C)n(Cc2ccc(Cl)cc2Cl)c2c1cc(O)c1[nH]c(Cc3ccccc3)nc12 | 3.22 µM | 15.8 µM | 2.05 µM | 4.62 µM | 4.79 µM | 17.3 µM | 4.15 µM | 16.7 µM | 3.19 µM | 11 µM | 2.4 µM | 5.23 µM | 5.92 µM | 26.2 µM | 9.39 µM | 37.2 µM | 5.54 µM | 23.1 µM | 5.89 µM | 30.8 µM |
| Cc1cc(N)c2cc(NC(=O)/C=C\c3ccccc3Cl)ccc2n1 | 1.61 µM | 3.07 µM | 0.767 µM | 2.11 µM | > 24.2 µM | > 100 µM | 0.365 µM | 0.971 µM | 1.61 µM | 3.12 µM | 1.45 µM | 2.91 µM | 1.31 µM | 2.71 µM | 1.83 µM | 3.34 µM | 1.56 µM | 2.95 µM | 1.7 µM | 3.21 µM |
| CCc1n(Cc2ccc3ccccc3c2)cc[n+]1Cc1ccc2ccccc2c1 | 0.736 µM | 2.32 µM | 0.549 µM | 1.89 µM | 19.2 µM | 62.4 µM | 0.307 µM | 1.28 µM | 0.76 µM | 3.13 µM | 1.15 µM | 2.63 µM | 1.43 µM | 4 µM | 0.534 µM | 2.14 µM | 0.492 µM | 1.82 µM | 0.335 µM | 1.71 µM |
| N#C/C(=C\c1ccccn1)c1nc2ccccc2o1 | 18.4 µM | > 100 µM | 26.8 µM | > 100 µM | 33.4 µM | > 100 µM | 17.3 µM | 34.2 µM | 36.2 µM | > 100 µM | 28.3 µM | 82.2 µM | 84.2 µM | > 100 µM | 29.1 µM | > 100 µM | 17 µM | 40 µM | 21.8 µM | > 100 µM |
| CC1=C(C(=O)Nc2cc(F)c(F)cc2F)C(c2ccc(N(C)C)cc2)C(C(=O)Nc2cc(F)c(F)cc2F)=C(C)N1 | – | > 100 µM | – | > 75.5 µM | 41.2 µM | > 100 µM | – | > 79.1 µM | – | > 100 µM | – | 64.3 µM | – | > 77.2 µM | – | > 100 µM | – | > 100 µM | – | 48.1 µM |
| O=C1C2C3C=CC(C2C(=O)N1CN1CCOCC1)C1C2C(=O)N(CN4CCOCC4)C(=O)C2C31 (stereo unspecified) | – | > 94.6 µM | – | > 63.4 µM | – | > 100 µM | – | > 60.4 µM | – | > 69.2 µM | – | > 65.2 µM | – | 98.9 µM | – | > 61.1 µM | – | > 78.9 µM | – | > 73.2 µM |
| Cc1ccc(S(=O)(=O)NC(=O)Nc2ncn[nH]2)cc1 | – | > 100 µM | – | > 100 µM | – | > 100 µM | – | > 100 µM | – | > 100 µM | – | > 100 µM | – | > 100 µM | – | > 100 µM | – | > 100 µM | – | > 100 µM |
| C=CCC(NCc1ccccc1)c1cn(C(=O)OCC)c2ccccc12 (stereo unspecified) | 18.5 µM | 71.7 µM | 28.4 µM | > 100 µM | 21.4 µM | 52.1 µM | 51.5 µM | > 100 µM | 24.1 µM | 61.1 µM | 19 µM | 46.5 µM | 21.7 µM | 47.4 µM | 33.1 µM | > 100 µM | 64.3 µM | > 100 µM | 43.1 µM | > 100 µM |
| COc1ccc(C(=O)c2no[n+]([O-])c2C(=O)c2ccc(OC)cc2)cc1 | 2.3 µM | 5.53 µM | 8.91 µM | 22.4 µM | 10.7 µM | 28.7 µM | 2.36 µM | 6.26 µM | 2.67 µM | 6.6 µM | 2.25 µM | 5.93 µM | 17.8 µM | 34.7 µM | 6.59 µM | 23.1 µM | 42.2 µM | > 100 µM | 3.03 µM | 9.26 µM |
| O=[N+]([O-])c1cc2c(ccc3ccccc32)o1 | 0.703 µM | 5.56 µM | 0.973 µM | 4.02 µM | 0.635 µM | 5.96 µM | 1.76 µM | 11 µM | 0.55 µM | 5.83 µM | 0.311 µM | 0.789 µM | 0.347 µM | 3.34 µM | 0.202 µM | 0.416 µM | 0.966 µM | > 35.4 µM | 0.497 µM | 2.27 µM |
| COc1cccc(C2=C(c3cn(C)c4c(C)cccc34)C(=O)NC2=O)c1 | > 25 µM | > 25 µM | > 21 µM | > 25 µM | > 21.4 µM | > 25 µM | > 14.3 µM | > 25 µM | > 25 µM | > 25 µM | 8.58 µM | > 25 µM | 17.4 µM | > 25 µM | > 16.9 µM | > 25 µM | > 25 µM | > 25 µM | 0.909 µM | > 25 µM |
